Here are results for four compounds from patent US11839698B2, “Drug composition and coating” (priority 2014, dated 2023).

Series [1] is described as follows: Test Method D: stability to ethylene oxide sterilization (paclitaxel recovery by UPLC). The class given is physicochemical. To be noted: additive formulated with paclitaxel as solid coating.
Description: A sample of a composition of the invention or a coated device of the invention was placed in a breathable polyethylene pouch (e.g. a Tyvek pouch) and subjected to at least 12 hours preconditioning at 43° C. and 65% relative humidity followed by 12 hours exposure to 600 mg/L ethylene oxide at 52° F. and 25% relative humidity. The chamber was then aerated at 32° F. for at least 12 hours until ethylene oxide concentration was less than 0.25 ppm.
After sterilization, the paclitaxel content on the device or the paclitaxel content of the composition was assessed (through device extraction for coated medical devices i.e. immersion of the whole device in an extraction solvent) using UPLC quantification as described in the evaluation methods section. For each device or composition, the percentage drug recovery after sterilization was calculated by normalizing the extracted paclitaxel amount by the theoretical paclitaxel amount loaded on the device, or present in the composition pre-sterilization.
Approximately 30 mg of excipient was weighed into a 7 mL glass vial and 6 mL of 75/25 v/v acetone/water was added. A small stirrer bar was added to each vial and all samples were stirred overnight at room temperature to ensure full dissolution. […] Percent paclitaxel recovery was calculated by normalizing to either theoretical initial loading or pre-sterilized samples.
Series [2] is described as follows: Early experiments on stability of organic additive in solution. The class given is physicochemical. The text has this: Thus, vanillin is not suitable as an organic additive for the present invention.
For series [3] the following is noted: in acetone, ethanol and aqueous mixtures thereof. The text has this: As discussed in further detail below, coatings of the invention can be prepared by pipetting a solution containing therapeutic agent and excipient onto the device to be coated. […] Thus, in one embodiment the organic additive is not thiamine-HCl.

Where a name gives a salt, the structure may show the parent alone.

For `NC(=O)c1cccnc1` [niacinamide], the “effect of additive on paclitaxel under ethylene oxide sterilization” value in series [1] is given as “nearly complete paclitaxel degradation”.

Consider `O=C([O-])c1ccccc1O.[Na+]` [sodium salicylate], for which the “effect of additive on paclitaxel under ethylene oxide sterilization” value in series [1] was “cause degradation of the paclitaxel”.

In the case of `COc1cc(C=O)ccc1O` [vanillin], the “stability of additive in solution” value in series [2] is recorded as “easily degraded in solution”.

`Cc1ncc(C[n+]2csc(CCO)c2C)c(N)n1` [thiamine-HCl]: the solubility of additive result in series [3] is reported as “poor solubility”.
